Results on 21 compounds are retold here after ChEMBL document CHEMBL1131475, “Discovery of ritonavir, a potent inhibitor of HIV protease with high oral bioavailability and clinical efficacy” (J Med Chem, 1998).

The structures appear in SMILES notation.

One may read the bioavailability as dose-corrected exposure relative to a reference, in per cent. In general, Tmax refers to the time at which the peak concentration occurs. In general, half-life refers to how long it takes for the measured level to halve. Lower therefore signals fast loss. The term AUC denotes concentration integrated over time. Low readings indicate less exposure, high ones more exposure. In general, Cmax refers to the peak of the concentration-time curve.

Series [1] can be described thus: Oral bioavailability in rat. Type of series: ADME, organism-based. To be noted: in vivo.
Series [2] in a line: in vivo. To be noted: rat, plasma, po.
Series [3] is described as follows: in vivo. The following applies: rat, plasma, iv.
Series [4] is described as follows: in vivo. To be noted: rat, plasma, po. The source holds these as a separate data set.
The nature of series [5]: in vivo. To be noted: rat, plasma, po, 10 mg/kg.
The next series is filed under the species Rattus norvegicus. In words: Plasma T1/2 in rat. Type of series: ADME, organism-based. The following applies: in vivo.

Compound `CC(C)c1nc(CN(C)C(=O)NC(C(=O)N[C@@H](Cc2ccccc2)C[C@H](O)[C@H](Cc2ccccc2)NC(=O)OCc2cccnc2)C(C)C)co1` (some centres undefined) gave a bioavailability in series [1] of 18%. In addition, the time of peak concentration (Tmax) in “in vivo [2]” came to 15 min. Further, the half-life in the series “in vivo [3]” was 13.2 min. This compound also came in with an AUC in the series “in vivo [4]” of 1100 ng·h/mL. The compound further showed a Cmax in “in vivo [5]” of 2130 nM.
`CC(C)C(NC(=O)OCc1ccccn1)C(=O)N[C@@H](Cc1ccccc1)[C@@H](O)C[C@H](Cc1ccccc1)NC(=O)OCc1ccoc1` (some centres undefined): in “in vivo [2]”, the Tmax was determined as 16.8 min. In the series “in vivo [4]”, the AUC was 230 ng·h/mL. The highest level in “in vivo [5]” (Cmax) was 250 nM. Moreover, in the series filed under Rattus norvegicus, the T1/2 entry is reported as “Not soluble”.
In the same order, the values of `CC(C)C(NC(=O)OCc1csc(N2CCOCC2)n1)C(=O)N[C@@H](Cc1ccccc1)C[C@H](O)[C@H](Cc1ccccc1)NC(=O)OCc1cncs1` (some centres undefined) are 6 min, 40 ng·h/mL, 170 nM and “Not soluble”.
Regarding `CC(C)C(NC(=O)OCc1csc(N2CCOCC2)n1)C(=O)N[C@@H](Cc1ccccc1)[C@@H](O)C[C@H](Cc1ccccc1)NC(=O)OCc1cncs1` (some centres undefined), the T1/2 result in the series filed under Rattus norvegicus is on record as “Not soluble”.
Turning to `Cc1ncsc1CCOC(=O)NC(C(=O)N[C@@H](Cc1ccccc1)C[C@H](O)[C@H](Cc1ccccc1)NC(=O)OCc1cccnc1)C(C)C` (some centres undefined), in the series “in vivo [4]”, the AUC was determined as 1530 ng·h/mL. This compound registered a Cmax in “in vivo [5]” of 960 nM. In addition, the T1/2 entry in the series listed under Rattus norvegicus is “Not soluble”.
`Cc1cncc(COC(=O)NC(C(=O)N[C@@H](Cc2ccccc2)C[C@H](O)[C@H](Cc2ccccc2)NC(=O)OCc2cccnc2)C(C)C)n1` (some centres undefined) registered a bioavailability in series [1] of 10%. In addition, the Tmax in the series “in vivo [2]” is 6 min. In the series “in vivo [3]”, this compound had a half-life of 69 min. In the series “in vivo [4]”, this compound returned an AUC of 640 ng·h/mL. The compound also had a Cmax in “in vivo [5]” of 1330 nM.
In the same order, the values of `CC(C)C(NC(=O)OCc1nccs1)C(=O)N[C@@H](Cc1ccccc1)[C@@H](O)C[C@H](Cc1ccccc1)NC(=O)OCc1cccnc1` (some centres undefined) are 35%, 10.8 min, 32.4 min, 2050 ng·h/mL and 3330 nM.
As for `CC(C)c1nc(CN(C(=O)NCCC(=O)N[C@@H](Cc2ccccc2)[C@@H](O)C[C@H](Cc2ccccc2)NC(=O)OCc2cncs2)C2CC2)cs1`, the bioavailability in series [1] was 9.4%. Moreover, the Tmax in the series “in vivo [2]” was 16.8 min. The half-life in “in vivo [3]” is 20.4 min. Besides, the AUC in “in vivo [4]” amounted to 400 ng·h/mL. Also, the Cmax in the series “in vivo [5]” was 650 nM.
Regarding `CC(C)C(NC(=O)OCc1ccccn1)C(=O)N[C@@H](Cc1ccccc1)[C@@H](O)C[C@H](Cc1ccccc1)NC(=O)OCc1cncs1` (some centres undefined), the time of peak concentration (Tmax) in “in vivo [2]” was found to be 8.4 min. In “in vivo [4]”, this compound showed an AUC of 1490 ng·h/mL. The Cmax in “in vivo [5]” amounted to 2980 nM. The T1/2 entry in the series filed under Rattus norvegicus is reported as “Not soluble”.
With `CC(C)c1nc(COC(=O)NC(C(=O)N[C@@H](Cc2ccccc2)C[C@H](O)[C@H](Cc2ccccc2)NC(=O)OCc2cccnc2)C(C)C)cs1` (some centres undefined), the bioavailability in series [1] is 1.6%. Moreover, the Tmax in the series “in vivo [2]” stood at 6 min. Also, the half-life in the series “in vivo [3]” is 14.4 min. In addition, the AUC in “in vivo [4]” is 50 ng·h/mL. The compound also had a Cmax in the series “in vivo [5]” of 210 nM.
Take `CCN(Cc1csc(C(C)C)n1)C(=O)NC(C(=O)N[C@@H](Cc1ccccc1)C[C@H](O)[C@H](Cc1ccccc1)NC(=O)OCc1cncs1)C(C)C` (some centres undefined): the time of peak concentration (Tmax) in “in vivo [2]” amounted to 228 min. The AUC in “in vivo [4]” was determined as 9850 ng·h/mL. For the same compound, the highest concentration (Cmax) in the series “in vivo [5]” was 3330 nM. In addition, the T1/2 entry in the series listed under Rattus norvegicus is on record as “Not soluble”.
`CC(C)C(NC(=O)N(C)Cc1ccccn1)C(=O)N[C@@H](Cc1ccccc1)C[C@H](O)[C@H](Cc1ccccc1)NC(=O)OCc1cncnc1` (some centres undefined) returned a bioavailability in series [1] of 5.1%. In addition, the Tmax in “in vivo [2]” worked out at 18 min. In the series “in vivo [3]”, this compound had a half-life of 52.2 min. For the same compound, the AUC in “in vivo [4]” was found to be 220 ng·h/mL. The same compound showed a Cmax in the series “in vivo [5]” of 910 nM.
As for `Cc1cccc(COC(=O)NC(C(=O)N[C@@H](Cc2ccccc2)C[C@H](O)[C@H](Cc2ccccc2)NC(=O)OCc2ccoc2)C(C)C)n1` (some centres undefined), the time of peak concentration (Tmax) in the series “in vivo [2]” amounted to 8.4 min. In “in vivo [4]”, this compound yielded an exposure (AUC) of 20 ng·h/mL. Also, the concentration in the series “in vivo [5]” peaked (Cmax) at 160 nM. Further, the T1/2 result in the series filed under Rattus norvegicus was “Not soluble”.
In series [1], `CCN(Cc1csc(C(C)C)n1)C(=O)NC(C)C(=O)N[C@@H](Cc1ccccc1)C[C@H](O)[C@H](Cc1ccccc1)NC(=O)OCc1cncs1` (some centres undefined) gave a bioavailability of 0%. Further, the T1/2 result in the series filed under Rattus norvegicus is reported as “Not soluble”.
In the case of `COCc1ncc(COC(=O)NC(C(=O)N[C@@H](Cc2ccccc2)C[C@H](O)[C@H](Cc2ccccc2)NC(=O)OCc2cccnc2)C(C)C)s1` (some centres undefined), the bioavailability in series [1] was found to be 0.6%. Moreover, the time to peak (Tmax) in “in vivo [2]” came out at 6 min. The compound further gave a half-life in “in vivo [3]” of 16.2 min. The same compound gave an AUC in the series “in vivo [4]” of 20 ng·h/mL. For the same compound, the highest concentration (Cmax) in “in vivo [5]” was determined as 120 nM.
In the same order, the values of `Cc1ncc(CN(C)C(=O)NC(C(=O)N[C@@H](Cc2ccccc2)[C@@H](O)C[C@H](Cc2ccccc2)NC(=O)OCc2cccnc2)C(C)C)nc1C` (some centres undefined) are 17%, 9 min, 18 min, 550 ng·h/mL and 1520 nM.
In the same order, the values of `CC(C)C(NC(=O)N(C)Cc1cscn1)C(=O)N[C@@H](Cc1ccccc1)[C@@H](O)C[C@H](Cc1ccccc1)NC(=O)OCc1cccnc1` (some centres undefined) are 35%, 22.2 min, 84 min, 1660 ng·h/mL and 3130 nM.
For `CC(C)c1nc(CCOC(=O)NC(C(=O)N[C@@H](Cc2ccccc2)[C@@H](O)C[C@H](Cc2ccccc2)NC(=O)OCc2cncs2)C(C)C)cs1` (some centres undefined), the bioavailability in series [1] stood at 0%. For the same compound, the T1/2 entry in the series filed under Rattus norvegicus was “Not soluble”.
The compound `COc1ccc(COC(=O)NC(C(=O)N[C@@H](Cc2ccccc2)[C@@H](O)C[C@H](Cc2ccccc2)NC(=O)OCc2cccnc2)C(C)C)nc1` (some centres undefined) came in with a bioavailability in series [1] of 7.7%. For the same compound, the Tmax in “in vivo [2]” came to 12 min. In the series “in vivo [3]”, the half-life is 27.6 min. The AUC in the series “in vivo [4]” stood at 380 ng·h/mL. The compound also had a Cmax in “in vivo [5]” of 1200 nM.
Compound `CC(C)c1nc(COC(=O)NC(C(=O)N[C@@H](Cc2ccccc2)[C@@H](O)C[C@H](Cc2ccccc2)NC(=O)OCc2cncs2)C(C)C)cs1` (some centres undefined) yielded a bioavailability in series [1] of 0%. Moreover, the T1/2 entry in the series filed under Rattus norvegicus is listed as “Not soluble”.
Turning to `CC(C)c1nc(COC(=O)NC(C(=O)N[C@@H](Cc2ccccc2)C[C@H](O)[C@H](Cc2ccccc2)NC(=O)OCc2cncs2)C(C)C)cs1` (some centres undefined), the time to peak (Tmax) in “in vivo [2]” came out at 6 min. Also, the exposure (AUC) in “in vivo [4]” worked out at 10 ng·h/mL. In “in vivo [5]”, this compound returned a Cmax of 40 nM. The T1/2 result in the series listed under Rattus norvegicus is recorded as “Not soluble”.
